The values that follow come from US12173018B2, “Penicillin-binding protein inhibitors” (priority 2018, dated 2024).

Test [1] relates to E. coli DH5α empty pLBII vector control strain. As to the kind of experiment: microbe, parasite or virus in culture. The settings on record: Escherichia coli, read-out: Microbiological Activity (MIC in mg/L), E. coli DH5α/pLBII. Type of test: cell-based, Escherichia coli. Put shortly:
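Broth microdilution in cation-supplemented Mueller-Hinton broth used a starting inoculum of 5×10^5 CFU/mL of E. coli DH5α carrying empty pLBII vector. Plates were incubated 16–20 h at 37 °C. MIC was read visually as the lowest concentration showing no growth.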

Test [2] relates to P. aeruginosa ATCC 27853. Briefly: Broth microdilution MIC, P. aeruginosa ATCC 27853. Type of test: cell-based. The settings on record: Pseudomonas aeruginosa. As for the experimental part:
To determine the ability of test compounds to potentiate the inhibition of the growth of bacterial strains, classic cell based broth microdilution minimum inhibitory concentration (MIC) assays were employed. MIC assays are performed according to CLSI methods except where otherwise noted (CLSI, 2011 and CLSI, 2009). The reference type strain E. coli ATCC 25922, the wild-type parent strain E. coli AG100, the hyper-permeable E. coli 901C and E. coli D22 and the E. coli AG100A strain lacking the acrAB efflux pump encoding genes were used to determine the ability of the PBP inhibitors to penetrate the outer membrane of gram-negative bacteria and inhibit bacterial growth. […] The P. aeruginosa PAO1, P. aeruginosa ATCC 27853 and A. baumannii ATCC 19606, along with the hyper-permeable P. aeruginosa ATCC 35151 and an engineered efflux pump-compromised strain of P. aeruginosa (ΔmexAB-oprM) were used to determine the ability of PBP inhibitors to penetrate the outer membrane of P. aeruginosa and A. baumannii and assess antibacterial activity against these important gram-negative organisms.
Briefly, cryo-preserved bacterial cultures of challenge strains are streaked for isolation on appropriate agar medium, in this case Mueller Hinton II agar. Following incubation to allow growth of the colonies, plates are sealed with parafilm and stored refrigerated for up to two weeks. For preparation of assay inoculum and to ensure low variability, at least 5 colonies are picked from the agar plates with an inoculating loop and aseptically transferred to a culture tube containing 3 mL of Mueller-Hinton Broth (supplemented with divalent cations to required levels based on Manufacturers' certification). The broth culture is grown for 3-5 hours at 37° C. with shaking at 200 rpm. Meanwhile, 2-fold serial dilutions of test compounds are conducted in a 96 well plate with a final volume of 75 μL per well at 2-fold the final desired concentration. After the dilution plates are set up the growing cultures are then diluted in a cuvette containing MH II broth and the optical density is measured at 600 nm. The Inoculum is diluted such that 75 μL of this culture in Mueller-Hinton Broth results in a starting bacterial concentration of 5×10^5 CFU/mL when added to the dilution plates. The plates are incubated for 16-20 hours at 37° C. The MIC values are read visually as the lowest concentration well with no bacterial growth.
(In broth dilution the organism is exposed to a series of concentrations in liquid medium.)

The mark [3] stands for this setting: ATCC27853, P. aeruginosa ATCC 27853, broth microdilution, read-out: MIC P. aeruginosa ATCC 27853.

≈ marks a conversion by molar mass, not a printed value. Like-named read-outs stand apart in the source and are kept apart here. Bounds are passed on as bounds.

With `CCN1CCN(C(=O)NC(C(=O)N[C@H]2Cc3cc(F)cc(C(=O)O)c3OB2O)c2csc(N)n2)C(=O)C1=O` (stereo partly drawn) [Example 16, (3R)-3-(2-(2-aminothiazol-4-yl)-2-(4-ethyl-2,3-dioxopiperazine-1-carboxamido)acetamido)-6-fluoro-2-hydroxy-3,4-dihydro-2H-benzo[e][1,2]oxaborinine-8-carboxylic acid], the MIC in test [1] fell in the range of 32 to 64 mg/L (≈ 58.4 to 117 µM). As to `CCN1CCN(C(=O)NC(C(=O)N[C@H]2Cc3cccc(C(=O)O)c3OB2O)c2ccc(O)cc2)C(=O)C1=O` (stereo partly drawn) [Example 27, (3R)-3-(2-(4-ethyl-2,3-dioxopiperazine-1-carboxamido)-2-(4-hydroxyphenyl)acetamido)-2-hydroxy-3,4-dihydro-2H-benzo[e][1,2]oxaborinine-8-carboxylic acid], the MIC in test [1] fell in the range of 8 to 16 mg/L (≈ 15.3 to 30.5 µM). Regarding `CCN1CCN(C(=O)NC(C(=O)N[C@H]2Cc3cccc(C(=O)O)c3OB2O)c2ccc(O)c(O)c2Cl)C(=O)C1=O` (stereo partly drawn) [Example 37, (3R)-3-(2-(2-chloro-3,4-dihydroxyphenyl)-2-(4-ethyl-2,3-dioxopiperazine-1-carboxamido)acetamido)-2-hydroxy-3,4-dihydro-2H-benzo[e][1,2]oxaborinine-8-carboxylic acid], in test [1], the MIC was 8 to 16 mg/L (≈ 13.9 to 27.8 µM).

As for `CCN1CCN(C(=O)NC(C(=O)N[C@H]2Cc3cccc(C(=O)O)c3OB2O)c2cnc(N)s2)C(=O)C1=O` (stereo partly drawn) [Example 51, (3R)-3-(2-(2-aminothiazol-5-yl)-2-(4-ethyl-2,3-dioxopiperazine-1-carboxamido)acetamido)-2-hydroxy-3,4-dihydro-2H-benzo[e][1,2]oxaborinine-8-carboxylic acid], the MIC in test [1] was in the range of 8 to 16 mg/L (≈ 15.1 to 30.2 µM).

On to `NCCCN1CCN(C(=O)NC(C(=O)N[C@H]2Cc3cccc(C(=O)O)c3OB2O)c2ccc(O)c(O)c2Cl)C(=O)C1=O` (stereo partly drawn) [Example 233, (3R)-3-(2-(4-(3-aminopropyl)-2,3-dioxopiperazine-1-carboxamido)-2-(2-chloro-3,4-dihydroxyphenyl)acetamido)-2-hydroxy-3,4-dihydro-2H-benzo[e][1,2]oxaborinine-8-carboxylic acid], for which, in test [2] (setting [3]), the MIC lay within 2 to 4 µg/mL. As to `CCN1C[C@H](CO)N(C(=O)NC(C(=O)N[C@H]2Cc3cccc(C(=O)O)c3OB2O)c2ncc(O)cc2F)C(=O)C1=O` (stereo partly drawn) [Example 234, (3R)-3-(2-((R)-4-ethyl-6-(hydroxymethyl)-2,3-dioxopiperazine-1-carboxamido)-2-(3-fluoro-5-hydroxypyridin-2-yl)acetamido)-2-hydroxy-3,4-dihydro-2H-benzo[e][1,2]oxaborinine-8-carboxylic acid], the MIC in test [2] (ATCC27853, read-out: MIC P. aeruginosa ATCC 27853) was above 128 µg/mL. As to `CCNC(=O)NCCN1CCN(C(=O)NC(C(=O)N[C@H]2Cc3cccc(C(=O)O)c3OB2O)c2ccc(O)c(O)c2Cl)C(=O)C1=O` (stereo partly drawn) [Example 235, (3R)-3-(2-(2-chloro-3,4-dihydroxyphenyl)-2-(4-(2-(3-ethylureido)ethyl)-2,3-dioxopiperazine-1-carboxamido)acetamido)-2-hydroxy-3,4-dihydro-2H-benzo[e][1,2]oxaborinine-8-carboxylic acid], the MIC in test [2] (setting [3]) lay within 8 to 16 µg/mL.

Take `NCCCN1CCN(C(=O)N[C@@H](C(=O)N[C@H]2Cc3ccc(F)c(C(=O)O)c3OB2O)c2ccc(O)c(O)c2Cl)C(=O)C1=O` [Example 236, (R)-3-((R)-2-(4-(3-aminopropyl)-2,3-dioxopiperazine-1-carboxamido)-2-(2-chloro-3,4-dihydroxyphenyl)acetamido)-7-fluoro-2-hydroxy-3,4-dihydro-2H-benzo[e][1,2]oxaborinine-8-carboxylic acid]: in test [2] (setting [3]), the MIC was in the range of 0.5 to 1 µg/mL.

On to `CCN1C[C@H](CO)N(C(=O)NC(C(=O)N[C@H]2Cc3ccc(F)c(C(=O)O)c3OB2O)c2ccc(O)c(O)c2Cl)C(=O)C1=O` (stereo partly drawn) [Example 237, (3R)-3-(2-(2-chloro-3,4-dihydroxyphenyl)-2-((R)-4-ethyl-6-(hydroxymethyl)-2,3-dioxopiperazine-1-carboxamido)acetamido)-7-fluoro-2-hydroxy-3,4-dihydro-2H-benzo[e][1,2]oxaborinine-8-carboxylic acid], for which, in test [2] (setting [3]), the MIC lay within 0.5 to 1 µg/mL. Still for that read-out and setting: the same measure for `CCN1C[C@H](CCN)N(C(=O)NC(C(=O)N[C@H]2Cc3ccc(F)c(C(=O)O)c3OB2O)c2ccc(O)c(O)c2Cl)C(=O)C1=O` (stereo partly drawn) [Example 238, (3R)-3-(2-((S)-6-(2-aminoethyl)-4-ethyl-2,3-dioxopiperazine-1-carboxamido)-2-(2-chloro-3,4-dihydroxyphenyl)acetamido)-7-fluoro-2-hydroxy-3,4-dihydro-2H-benzo[e][1,2]oxaborinine-8-carboxylic acid]: 2 to 4 µg/mL; for `CNCCN1CCN(C(=O)NC(C(=O)N[C@H]2Cc3cccc(C(=O)O)c3OB2O)c2ccc(O)c(O)c2Cl)C(=O)C1=O` (stereo partly drawn) [Example 239, (3R)-3-(2-(2-chloro-3,4-dihydroxyphenyl)-2-(4-(2-(methylamino)ethyl)-2,3-dioxopiperazine-1-carboxamido)acetamido)-2-hydroxy-3,4-dihydro-2H-benzo[e][1,2]oxaborinine-8-carboxylic acid]: 8 to 16 µg/mL.
